# Results published in patent US6737383B1, “Herbicidal oxadiazolidines” (priority 1999, dated 2004).
# Legend:
# pigweed = experiment: Test B pre/postemergence pigweed; format: in vivo, Amaranthus retroflexus
# In short: (§1)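 Herbicidal effect was estimated by eye on a ten-point control scale after plants spent twelve to sixteen days in a greenhouse following soil or foliar treatment. Foliar sprays targeted plants at one to four leaves; all doses were formulated in a non-phytotoxic solvent with surfactant.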
# smallflower flatsedge = experiment: Test B flood test smallflower flatsedge; format: in vivo, Cyperus difformis
# In short: (§2)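 Plants were grown to the 2-leaf stage before treatment with test chemical, then held in a greenhouse for twelve to sixteen days. Injury was visually rated against untreated controls on a 0–10 scale, where 0 is no effect and 10 is complete control.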
# sugar beet = experiment: Test B pre/postemergence sugar beet; format: in vivo, Beta vulgaris
# In short: as §1
# blackgrass = experiment: Test B pre/postemergence blackgrass; format: in vivo, Alopecurus myosuroides
# In short: as §1
# rape = experiment: Test B pre/postemergence rape; format: in vivo, Brassica napus
# In short: as §1
# rice = experiment: Test B flood test rice; format: in vivo, Oryza sativa
# In short: as §2
# crabgrass = experiment: Test B pre/postemergence crabgrass; format: in vivo, Digitaria sanguinalis
# In short: as §1
# wheat = experiment: Test B pre/postemergence wheat; format: in vivo, Triticum aestivum
# In short: as §1
# soybean = experiment: Test B pre/postemergence soybean; format: in vivo, Glycine max
# In short: as §1
# purple nutsedge = experiment: Test B pre/postemergence purple nutsedge; format: in vivo, Cyperus rotundus
# In short: as §1
# cocklebur = experiment: Test B pre/postemergence cocklebur; format: in vivo, Xanthium strumarium
# In short: as §1
# surinam grass = experiment: Test B pre/postemergence surinam grass; format: in vivo, Brachiaria decumbens
# In short: as §1
# wild oat = experiment: Test B pre/postemergence wild oat; format: in vivo, Avena fatua
# In short: as §1
# velvetleaf = experiment: Test B pre/postemergence velvetleaf; format: in vivo, Abutilon theophrasti
# In short: as §1
# corn = experiment: Test B pre/postemergence corn; format: in vivo, Zea mays
# In short: as §1
# giant foxtail = experiment: Test B pre/postemergence giant foxtail; format: in vivo, Setaria faberii
# In short: as §1
# bedstraw = experiment: Test B pre/postemergence bedstraw; format: in vivo, Galium aparine
# In short: as §1
# duck salad = experiment: Test B flood test duck salad; format: in vivo, Heteranthera limosa
# In short: as §2
# bamyardgrass = experiment: Test B flood test barnyardgrass; format: in vivo, Echinochloa crus-galli
# In short: as §2
# morningglory = experiment: Test B pre/postemergence morningglory; format: in vivo, Ipomoea hederacea
# In short: as §1
# [1] = Postemergence, Rate 31 g/ha, visual rating, scale 0 to 10 (0 no effect, 10 complete control)
# [2] = Postemergence, Rate 62 g/ha, scale 0 to 10, 0 is no effect, 10 is complete control
# [3] = Postemergence, Rate 125 g/ha, scale of 0 to 10 where 0 is no effect and 10 is complete control
# [4] = Preemergence, Rate 62 g/ha, scale 0 to 10 (0 no effect, 10 complete control)
# [5] = Preemergence, Rate 125 g/ha, scale of 0 to 10 where 0 is no effect and 10 is complete control
# [6] = Preemergence, Rate 250 g/ha, scale 0 to 10 (0 no effect, 10 complete control)
# [7] = Rate 31 g/ha, Pre-emergence section (flood test species), scale 0 to 10
# [8] = Rate 62 g/ha, flood test species, Pre-emergence, visual evaluation after twelve to sixteen days
# [9] = Rate 125 g/ha, under heading Pre-emergence, flood test species, visual evaluation after twelve to sixteen days
# [10] = Rate 250 g/ha, Pre-emergence (flood test species), scale 0 to 10, 0 is no effect, 10 is complete control
# [11] = Preemergence, Rate 31 g/ha, visual rating, scale 0 to 10 (0 no effect, 10 complete control)
smiles,measurement,setting,value
CCOC(=O)CC(C(=O)OCC)n1c(=O)on(C(=O)N(c2ccccc2)C(C)C)c1=O (stereo not shown) [Compound 614],Redroot pigweed plant response rating,pigweed; [1],0
same,"Plant response rating, Redroot pigweed",pigweed; [2],0
same,"Plant response rating, Redroot pigweed",pigweed; [3],0
same,Redroot pigweed plant response rating,pigweed; [4],0
same,Redroot pigweed plant response rating,pigweed; [5],0
same,"Plant response rating, Redroot pigweed",pigweed; [6],0
same,S. Flatsedge plant response rating,smallflower flatsedge; [7],0
same,"Plant response rating, S. Flatsedge (0 to 10 scale, 0 is no effect, 10 is complete control)",smallflower flatsedge; [8],0
same,"S. Flatsedge plant response rating (0 to 10 scale, 0 is no effect, 10 is complete control)",smallflower flatsedge; [9],0
same,S. Flatsedge plant response rating,smallflower flatsedge; [10],0
same,Sugarbeets plant response rating,sugar beet; [1],0
same,"Plant response rating, Sugarbeets",sugar beet; [2],0
same,"Plant response rating, Sugarbeets",sugar beet; [3],0
same,Sugarbeets plant response rating,sugar beet; [4],0
same,Sugarbeets plant response rating,sugar beet; [5],0
same,"Plant response rating, Sugarbeets",sugar beet; [6],0
same,Blackgrass plant response rating,blackgrass; [1],0
same,"Plant response rating, Blackgrass",blackgrass; [2],0
same,"Plant response rating, Blackgrass",blackgrass; [3],0
same,Blackgrass plant response rating,blackgrass; [11],0
same,Blackgrass plant response rating,blackgrass; [4],0
same,Blackgrass plant response rating,blackgrass; [5],0
same,"Plant response rating, Blackgrass",blackgrass; [6],3
same,Rape plant response rating,rape; [1],0
same,"Plant response rating, Rape",rape; [2],0
same,"Plant response rating, Rape",rape; [3],0
same,Rape plant response rating,rape; [4],0
same,Rape plant response rating,rape; [5],0
same,"Plant response rating, Rape",rape; [6],0
same,Rice plant response rating,rice; [7],0
same,"Plant response rating, Rice (0 to 10 scale, 0 is no effect, 10 is complete control)",rice; [8],0
same,"Rice plant response rating (0 to 10 scale, 0 is no effect, 10 is complete control)",rice; [9],0
same,Rice plant response rating,rice; [10],0
same,Crabgrass plant response rating,crabgrass; [1],0
same,"Plant response rating, Crabgrass",crabgrass; [2],0
same,"Plant response rating, Crabgrass",crabgrass; [3],1
same,Crabgrass plant response rating,crabgrass; [11],0
same,Crabgrass plant response rating,crabgrass; [4],0
same,Crabgrass plant response rating,crabgrass; [5],6
same,"Plant response rating, Crabgrass",crabgrass; [6],8
same,Wheat plant response rating,wheat; [1],0
same,"Plant response rating, Wheat",wheat; [2],0
same,"Plant response rating, Wheat",wheat; [3],0
same,Wheat plant response rating,wheat; [4],0
same,Wheat plant response rating,wheat; [5],0
same,"Plant response rating, Wheat",wheat; [6],0
same,Soybean plant response rating,soybean; [1],2
same,"Plant response rating, Soybean",soybean; [2],3
same,"Plant response rating, Soybean",soybean; [3],3
same,Soybean plant response rating,soybean; [4],0
same,Soybean plant response rating,soybean; [5],0
same,"Plant response rating, Soybean",soybean; [6],0
same,Nutsedge plant response rating,purple nutsedge; [1],0
same,"Plant response rating, Nutsedge",purple nutsedge; [2],0
same,"Plant response rating, Nutsedge",purple nutsedge; [3],0
same,Nutsedge plant response rating,purple nutsedge; [5],0
same,"Plant response rating, Nutsedge",purple nutsedge; [6],0
same,Cocklebur plant response rating,cocklebur; [1],0
same,"Plant response rating, Cocklebur",cocklebur; [2],0
same,"Plant response rating, Cocklebur",cocklebur; [3],0
same,Cocklebur plant response rating,cocklebur; [11],0
same,Cocklebur plant response rating,cocklebur; [4],0
same,Cocklebur plant response rating,cocklebur; [5],0
same,"Plant response rating, Cocklebur",cocklebur; [6],0
same,B. signalgrass plant response rating,surinam grass; [1],0
same,"Plant response rating, B. signalgrass",surinam grass; [2],0
same,"Plant response rating, B. signalgrass",surinam grass; [3],0
same,B. signalgrass plant response rating,surinam grass; [11],0
same,B. signalgrass plant response rating,surinam grass; [4],0
same,B. signalgrass plant response rating,surinam grass; [5],0
same,"Plant response rating, B. signalgrass",surinam grass; [6],0
same,Wild oats plant response rating,wild oat; [1],0
same,"Plant response rating, Wild oats",wild oat; [2],0
same,"Plant response rating, Wild oats",wild oat; [3],0
same,Wild oats plant response rating,wild oat; [4],0
same,Wild oats plant response rating,wild oat; [5],0
same,"Plant response rating, Wild oats",wild oat; [6],0
same,Velvetleaf plant response rating,velvetleaf; [1],0
same,"Plant response rating, Velvetleaf",velvetleaf; [2],0
same,"Plant response rating, Velvetleaf",velvetleaf; [3],0
same,Velvetleaf plant response rating,velvetleaf; [4],0
same,Velvetleaf plant response rating,velvetleaf; [5],0
same,"Plant response rating, Velvetleaf",velvetleaf; [6],0
same,Corn plant response rating,corn; [1],0
same,"Plant response rating, Corn",corn; [2],0
same,"Plant response rating, Corn",corn; [3],0
same,Corn plant response rating,corn; [11],0
same,Corn plant response rating,corn; [4],0
same,Corn plant response rating,corn; [5],0
same,"Plant response rating, Corn",corn; [6],0
same,Giant foxtail plant response rating,giant foxtail; [1],0
same,"Plant response rating, Giant foxtail",giant foxtail; [2],0
same,"Plant response rating, Giant foxtail",giant foxtail; [3],0
same,Giant foxtail plant response rating,giant foxtail; [11],0
same,Giant foxtail plant response rating,giant foxtail; [4],0
same,Giant foxtail plant response rating,giant foxtail; [5],4
same,"Plant response rating, Giant foxtail",giant foxtail; [6],9
same,"Plant response rating, Bedstraw",bedstraw; [3],0
same,Bedstraw plant response rating,bedstraw; [11],0
same,Bedstraw plant response rating,bedstraw; [4],0
same,"Plant response rating, Bedstraw",bedstraw; [6],0
same,Ducksalad plant response rating,duck salad; [7],0
same,"Plant response rating, Ducksalad (0 to 10 scale, 0 is no effect, 10 is complete control)",duck salad; [8],0
same,"Ducksalad plant response rating (0 to 10 scale, 0 is no effect, 10 is complete control)",duck salad; [9],0
same,Ducksalad plant response rating,duck salad; [10],0
same,Barnyardgrass plant response rating,bamyardgrass; [7],0
same,"Plant response rating, Barnyardgrass (0 to 10 scale, 0 is no effect, 10 is complete control)",bamyardgrass; [8],0
same,"Barnyardgrass plant response rating (0 to 10 scale, 0 is no effect, 10 is complete control)",bamyardgrass; [9],0
same,Barnyardgrass plant response rating,bamyardgrass; [10],0
same,Morningglory plant response rating,morningglory; [1],0
same,"Plant response rating, Morningglory",morningglory; [2],2
same,"Plant response rating, Morningglory",morningglory; [3],2
same,Morningglory plant response rating,morningglory; [4],0
same,Morningglory plant response rating,morningglory; [5],0
same,"Plant response rating, Morningglory",morningglory; [6],0
